Measurements: ChEMBL document CHEMBL5528058 (J Med Chem, 2024)
Calls of active or inactive are those of the source. No cut-off for these calls is given here.

What was measured:
[1] = target: Programmed cell death protein 1/Programmed cell death 1 ligand 1 (Homo sapiens, UniProt Q9NZQ7)
Description: Inhibition of human PD-1/PD-L1 interaction by HTRF analysis

[2] = target: Programmed cell death protein 1 (Homo sapiens, UniProt Q15116); experiment: Inhibition of human recombinant PD-1 by HTRF analysis
4T1 [3] = experiment: Antiproliferative activity against mouse 4T1 cells as cell killing incubated for 6 days by CCK-8 assay; conditions: 4T1, 144 h
4T1 [4] = experiment: Antitumor activity against mouse 4T1 cells implanted in BALB/c mouse assessed as tumor growth inhibition at 10 mg/kg, IG administered twice a day for 14 days; conditions: 4T1, po, 336 h, read-out: TGI
[5] = Half life in ICR mouse at 10 mg/kg, IG measured upto 24 hrs by LCMS analysis; format: ADME, organism-based; conditions: in vivo, po
[6] = target: Programmed cell death 1 ligand 1 (Mus musculus, UniProt Q9EP73); experiment: Binding affinity to his-tagged mouse PD-L1 expressed in HEK293 cells assessed as dissociation constant by SPR analysis
[7] = Toxicity in BALB/c mouse implanted with mouse 4T1 cells assessed as morphological changes in spleen at 5 to 10 mg/kg, IG administered twice a day for 14 days by H and E staining based analysis; format: organism-based; conditions: in vivo, po, 336 h, dose 5-10 mg/kg, time 14 day
[8] = Clearance in ICR mouse at 1 mg/kg, iv measured upto 24 hrs by LCMS analysis; format: ADME, organism-based; conditions: in vivo
[9] = MRT (0 to t) in ICR mouse at 10 mg/kg, IG measured upto 24 hrs by LCMS analysis; format: ADME, organism-based; conditions: in vivo, po
[10] = AUC (0 to infinity) in ICR mouse at 1 mg/kg, iv measured upto 24 hrs by LCMS analysis; format: ADME, organism-based; conditions: in vivo
[11] = AUC (0 to t) in ICR mouse at 10 mg/kg, IG measured upto 24 hrs by LCMS analysis; format: ADME, organism-based; conditions: in vivo, po
4T1 [12] = experiment: Antitumor activity against mouse 4T1 cells implanted in BALB/c mouse assessed as tumor growth inhibition at 5 mg/kg, IG administered twice a day for 14 days; conditions: 4T1, po, 336 h, read-out: TGI
[13] = MRT (0 to infinity) in ICR mouse at 1 mg/kg, iv measured upto 24 hrs by LCMS analysis; format: ADME, organism-based; conditions: in vivo
[14] = Half life in ICR mouse at 1 mg/kg, iv measured upto 24 hrs by LCMS analysis; format: ADME, organism-based; conditions: in vivo
PBMC = experiment: Induction of cell death in human PBMC cells incubated for 6 days by CCK-8 assay; format: functional, cell-based; conditions: time 6.0 day
[15] = Cmax in ICR mouse at 10 mg/kg, IG measured upto 24 hrs by LCMS analysis; format: ADME, organism-based; conditions: in vivo, po
MDA-MB-231 [16] = experiment: Antitumor immunity activity against human MDA-MB-231 cells co-cultured with human PBMC assessed as cell killing incubated for 12 hrs; format: functional, cell-based
[17] = MRT (0 to t) in ICR mouse at 1 mg/kg, iv measured upto 24 hrs by LCMS analysis; format: ADME, organism-based; conditions: in vivo
MDA-MB-231 [18] = experiment: Antiproliferative activity against human MDA-MB-231 cells as cell killing incubated for 6 days by CCK-8 assay; conditions: MDA-MB-231, 144 h
[19] = Tmax in ICR mouse at 10 mg/kg, IG measured upto 24 hrs by LCMS analysis; format: ADME, organism-based; conditions: in vivo, po
[20] = Oral bioavailability in ICR mouse at 1 mg/kg measured upto 24 hrs by LCMS analysis; format: ADME, organism-based; conditions: in vivo
[21] = Toxicity in BALB/c mouse implanted with mouse 4T1 cells assessed as morphological changes in kidney at 5 to 10 mg/kg, IG administered twice a day for 14 days by H and E staining based analysis; format: organism-based; conditions: in vivo, po, 336 h, dose 5-10 mg/kg, time 14 day
[22] = MRT (0 to infinity) in ICR mouse at 10 mg/kg, IG measured upto 24 hrs by LCMS analysis; format: ADME, organism-based; conditions: in vivo, po
[23] = Acute toxicity in ICR mouse at 250 to 500 mg/kg, IG measured for 7 days; format: organism-based; conditions: in vivo, po, 168 h, dose 250-500 mg/kg, time 7 day
[24] = Toxicity in BALB/c mouse implanted with mouse 4T1 cells assessed as morphological changes in heart at 5 to 10 mg/kg, IG administered twice a day for 14 days by H and E staining based analysis; format: organism-based; conditions: in vivo, po, 336 h, dose 5-10 mg/kg, time 14 day
[25] = Toxicity in BALB/c mouse implanted with mouse 4T1 cells assessed as side effect at 5 to 10 mg/kg, IG administered twice a day for 14 days; format: organism-based; conditions: in vivo, po, 336 h, dose 5-10 mg/kg, time 14 day
[26] = Toxicity in BALB/c mouse implanted with mouse 4T1 cells assessed as morphological changes in liver at 5 to 10 mg/kg, IG administered twice a day for 14 days by H and E staining based analysis; format: organism-based; conditions: in vivo, po, 336 h, dose 5-10 mg/kg, time 14 day
[27] = Toxicity in BALB/c mouse implanted with mouse 4T1 cells assessed as body weight loss at 5 to 10 mg/kg, IG administered twice a day for 14 days; format: organism-based; conditions: in vivo, po, 336 h, dose 5-10 mg/kg, time 14 day
Jurkat = experiment: Antiproliferative activity against human Jurkat cells as cell killing incubated for 6 days by CCK-8 assay; conditions: 144 h
[28] = Toxicity in BALB/c mouse implanted with mouse 4T1 cells assessed as morphological changes in tumor at 5 to 10 mg/kg, IG administered twice a day for 14 days by H and E staining based analysis; format: organism-based; conditions: in vivo, po, 336 h, dose 5-10 mg/kg, time 14 day
MDA-MB-231 [29] = experiment: Induction of cell death in human MDA-MB-231 cells incubated for 6 days by CCK-8 assay; format: functional, cell-based; conditions: time 6.0 day
[30] = AUC (0 to t) in ICR mouse at 1 mg/kg, iv measured upto 24 hrs by LCMS analysis; format: ADME, organism-based; conditions: in vivo
4T1 [31] = experiment: Antitumor activity against mouse 4T1 cells implanted in BALB/c mouse assessed as reduction in ki-67 expression at 10 mg/kg, IG administered twice a day for 14 days by immunohistochemistry analysis; format: functional, organism-based; conditions: time 14.0 day
[32] = AUC (0 to infinity) in ICR mouse at 10 mg/kg, IG measured upto 24 hrs by LCMS analysis; format: ADME, organism-based; conditions: in vivo, po
[33] = Toxicity in BALB/c mouse implanted with mouse 4T1 cells assessed as morphological changes in lung at 5 to 10 mg/kg, IG administered twice a day for 14 days by H and E staining based analysis; format: organism-based; conditions: in vivo, po, 336 h, dose 5-10 mg/kg, time 14 day
4T1 [34] = experiment: Antitumor activity against mouse 4T1 cells implanted in BALB/c mouse assessed as increase in percentage of CD3+ CD8+ cells in tumor at 15 mg/kg, ip qd administered for 14 days by flow cytometry analysis (reference value: 0.64%); format: functional; conditions: time 14 day
4T1 [35] = experiment: Antitumor activity against mouse 4T1 cells implanted in BALB/c mouse assessed as increase in percentage of CD3+ CD4+ cells in spleen at 15 mg/kg, ip qd administered for 14 days by flow cytometry analysis (reference value: 6.72%); format: functional; conditions: time 14 day
4T1 [36] = experiment: Antitumor activity against mouse 4T1 cells implanted in BALB/c mouse assessed as increase in percentage of CD3+ CD8+ cells in spleen at 15 mg/kg, ip qd administered for 14 days by flow cytometry analysis (reference value: 3.34%); format: functional; conditions: time 14 day
4T1 [37] = experiment: Antitumor activity against mouse 4T1 cells implanted in BALB/c mouse assessed as increase in percentage of CD3+ CD4+ cells in tumor at 15 mg/kg, ip qd administered for 14 days by flow cytometry analysis (reference value: 0.32%); format: functional; conditions: time 14 day

Sequence of Programmed cell death protein 1/Programmed cell death 1 ligand 1 (Q15116 whole entry): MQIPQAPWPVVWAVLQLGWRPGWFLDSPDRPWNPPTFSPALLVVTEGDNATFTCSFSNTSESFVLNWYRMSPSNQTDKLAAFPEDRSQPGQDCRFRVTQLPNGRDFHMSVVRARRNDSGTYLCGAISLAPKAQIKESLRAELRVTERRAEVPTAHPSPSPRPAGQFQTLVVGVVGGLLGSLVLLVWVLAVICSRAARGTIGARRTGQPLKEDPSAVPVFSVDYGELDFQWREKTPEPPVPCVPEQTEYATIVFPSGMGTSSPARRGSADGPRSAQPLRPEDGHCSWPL
Sequence of Programmed cell death protein 1/Programmed cell death 1 ligand 1 (Q9NZQ7 whole entry): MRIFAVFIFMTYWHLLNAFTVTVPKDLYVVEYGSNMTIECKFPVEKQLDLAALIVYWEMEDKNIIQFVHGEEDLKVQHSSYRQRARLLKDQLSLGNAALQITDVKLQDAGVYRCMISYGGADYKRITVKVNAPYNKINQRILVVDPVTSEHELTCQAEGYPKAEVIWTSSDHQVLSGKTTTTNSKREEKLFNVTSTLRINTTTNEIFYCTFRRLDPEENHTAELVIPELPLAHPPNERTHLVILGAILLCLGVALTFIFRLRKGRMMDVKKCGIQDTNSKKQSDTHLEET
Sequence of Programmed cell death protein 1 (Q15116 whole entry): as the sequence (Q15116 whole entry) above
Sequence of Programmed cell death 1 ligand 1 (Q9EP73 whole entry): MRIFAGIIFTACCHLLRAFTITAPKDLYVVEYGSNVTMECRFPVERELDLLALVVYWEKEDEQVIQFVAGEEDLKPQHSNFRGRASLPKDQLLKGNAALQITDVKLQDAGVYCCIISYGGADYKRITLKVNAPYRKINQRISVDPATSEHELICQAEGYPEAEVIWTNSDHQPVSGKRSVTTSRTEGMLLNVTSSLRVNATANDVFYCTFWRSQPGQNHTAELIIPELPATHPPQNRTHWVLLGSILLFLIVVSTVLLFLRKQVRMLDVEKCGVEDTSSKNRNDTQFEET

## OCCN1CCc2nc(OCc3cccc(-c4ccccc4Cl)c3F)ccc2C1
[1]
  IC50: 101 nM

## O=C(Nc1cccc(-c2cccc(F)c2F)c1Cl)c1ccc2c(n1)CCN(CCO)C2
[1]
  IC50: 20.1 nM

## Cc1ccccc1-c1cccc(COc2ccc3c(n2)CCN(CCO)C3)c1C
[1]
  IC50: 406 nM

## Cc1c(Nc2nccc3cc(CN4CC[C@@H](O)C4)cnc23)cccc1-c1cccc(-c2nc3ccc(CN4CC[C@@H](C(=O)O)C4)c(C#N)c3o2)c1C
[2]
  IC50: 3.1 nM

## O=C(O)CN1CCc2nc(OCc3cccc(-c4ccccc4F)c3Cl)ccc2C1
4T1 [3]
  IC50: 77500 nM
4T1 [4]
  inhibition in vivo at 10 mg/kg: 66%
[5]
  half-life: 4.95 h
[6]
  Kd: 392000 nM
[7]
  Activity: Non-Toxic
[8]
  clearance: 9.55 mL/min/kg
[9]
  MRT last at 24 h: 6.05 h
[10]
  AUC(0-inf): 1820 ng·h/mL
[11]
  AUC(0-t) at 24 h: 10200 ng·h/mL
4T1 [12]
  inhibition in vivo at 5 mg/kg: 49%
[13]
  MRT inf: 3.86 h
[14]
  half-life: 3.51 h
PBMC
  Activity: Active
[15]
  Cmax: 1950 ng/mL
MDA-MB-231 [16]
  Activity: Active
[17]
  MRT last at 24 h: 3.7 h
MDA-MB-231 [18]
  IC50: 15400 nM
[19]
  Tmax: 0.25 h
[20]
  bioavailability: 58%
[21]
  Activity: Non-Toxic
[22]
  MRT inf: 7.35 h
[23]
  Activity: Non-Toxic
[24]
  Activity: Non-Toxic
[25]
  Activity: Non-Toxic
[26]
  Activity: Non-Toxic
[27]
  Activity: Non-Toxic
Jurkat
  IC50: 53900 nM
[28]
  Activity: Toxic
MDA-MB-231 [29]
  Activity: Active
[30]
  AUC(0-t) at 24 h: 1800 ng·h/mL
4T1 [31]
  Activity: Active
[32]
  AUC(0-inf): 10500 ng·h/mL
[33]
  Activity: Non-Toxic

## O=C(Nc1cccc(-c2cccc(Cl)c2F)c1Cl)c1ccc2c(n1)CCN(CCO)C2
[1]
  IC50: 24.2 nM

## Cc1c(COc2ccc3c(n2)CCN(CCO)C3)cccc1-c1ccccc1
[1]
  IC50: 227 nM

## NC(=O)CN1CCc2nc(OCc3cccc(-c4ccccc4F)c3Cl)ccc2C1
[1]
  IC50: 157 nM

## Cc1c(COc2ccc3c(n2)CCN(CCO)C3)cccc1-c1ccccc1Cl
[1]
  IC50: 216 nM

## COc1nc(OCc2cccc(-c3ccccc3)c2C)ccc1CNCCNC(C)=O
4T1 [3]
  IC50: 5200 nM
4T1 [34]
  Activity: 1.24%
4T1 [35]
  Activity: 5.4%
4T1 [36]
  Activity: 2.52%
4T1 [37]
  Activity: 0.58%
MDA-MB-231 [18]
  IC50: 19300 nM
Jurkat
  IC50: 4330 nM

## CCOC(=O)CCN1CCc2nc(OCc3cccc(-c4ccccc4F)c3Cl)ccc2C1
[1]
  IC50: 241 nM

## OCCN1CCc2nc(OCc3cccc(-c4ccccc4F)c3F)ccc2C1
[1]
  IC50: 105 nM

## CCOC(=O)CN1CCc2nc(C(=O)Nc3cccc(-c4cccc(Cl)c4F)c3Cl)ccc2C1
[1]
  IC50: > 1000 nM

## CCOC(=O)CN1CCc2nc(C(=O)Nc3cccc(-c4cccc(F)c4F)c3Cl)ccc2C1
[1]
  IC50: 33800 nM

## CCOC(=O)CN1CCc2nc(C(=O)Nc3cccc(-c4cccc(C#N)c4F)c3Cl)ccc2C1
[1]
  IC50: > 1000 nM

## CC(C(=O)O)N1CCc2nc(OCc3cccc(-c4ccccc4F)c3Cl)ccc2C1 (centres undefined)
[1]
  IC50: 31.3 nM

## COC(=O)CN1CCc2nc(OCc3cccc(-c4ccccc4F)c3Cl)ccc2C1
[1]
  IC50: 369 nM

## N#Cc1cccc(-c2cccc(NC(=O)c3ccc4c(n3)CCN(CCO)C4)c2Cl)c1F
[1]
  IC50: 58.8 nM

## OCCN1CCc2nc(OCc3cccc(-c4ccccc4F)c3Cl)ccc2C1
[1]
  IC50: 19.8 nM

## O=C(Nc1cccc(-c2ccccc2F)c1Cl)c1ccc2c(n1)CCN(CCO)C2
[1]
  IC50: 21.6 nM

## CCOC(=O)C(C)N1CCc2nc(OCc3cccc(-c4ccccc4F)c3Cl)ccc2C1 (centres undefined)
[1]
  IC50: 592 nM

## Cc1c(COc2ccc3c(n2)CCN(CCO)C3)cccc1-c1ccccc1F
[1]
  IC50: 170 nM

## CCOC(=O)CN1CCc2nc(C(=O)Nc3cccc(-c4cccc(OC(C)C)c4F)c3Cl)ccc2C1
[1]
  IC50: > 1000 nM

## OCCN1CCc2nc(OCc3cccc(-c4ccccc4Cl)c3Cl)ccc2C1
[1]
  IC50: 95.1 nM

## CC(C)Oc1cccc(-c2cccc(NC(=O)c3ccc4c(n3)CCN(CCO)C4)c2Cl)c1F
[1]
  IC50: 83.5 nM

## CC(C)OC(=O)CN1CCc2nc(OCc3cccc(-c4ccccc4F)c3Cl)ccc2C1
[1]
  IC50: 436 nM
